Data reported in PubChem BioAssay AID2060899 (Molecular Pharmacology Branch, DTP, NCI, 2025).

System: 565726-208-R1-J5-PDC complex spheroids, growth inhibition
Assay: Anticancer human tumor 565726-208-R1-J5-PDC patient-derived pancreatic adenocarcinoma cell line growth inhibition [RAS]
Conditions: for IC50: curve of first compound; for viability, T/C: stronger effect = lower value
From the text: RAS pathway inhibitors in Combinations in Complex Spheroids
A high-throughput screen of multi-cell type tumor spheroids was designed to identify active combinations of RAS pathway inhibitors and targeted small molecules. Complex spheroids include a stromal component modeled by human endothelial cells (HUVEC) and fibroblasts modeled by human mesenchymal stem cells (MSCs). The concentration ranges selected for each drug and investigational agent were based upon clinically achievable concentrations if the clinical Cmax of the agent was known.
Compounds. The drugs and investigational agents: abemaciclib (NSC768073), cobimetinib (NSC768068), divarasib (GDC6063, NSC841802), docetaxel (NSC628503), GDC-1971 (RLY-1971, NSC841576), gemcitabine (NSC613327), inavolisib (NSC800729), ipatasertib (NSC767898), KB-0742 (NSC834161), MRTX-1133 (NSC836407), osimertinib (NSC779217), RMC-4630 (NSC839698), RMC-6236 (NSC851965), RMC-6291 (NSC852671), Ro-3306 (NSC812927), sapanisertib (NSC764658), SN-38 (NSC673596), staurosporine (NSC755774), SY5609 (NSC837396), and tovorafenib (DAY101, NSC766906), were obtained from the National Cancer Institute (NCI) Developmental Therapeutics Program Chemical Repository. The FDA-approved anticancer drug set is available from the NCI Developmental Therapeutics Program. […] The stock solutions were prepared in dimethyl sulfoxide (DMSO, Sigma-Aldrich, St. Louis, MO, cat. D2650) at 800-fold the tested concentration and stored at -70 degrees C prior to their use. All drugs and investigational agents were tested over a range starting from a high concentration at or near the clinical Cmax and decreasing in half-log increments. If the clinical Cmax for an agent had not been determined, the highest concentration tested was 10 microM.
Cell Culture. All cells were maintained in an incubator at 37 degrees C and 5% CO2 with 95% humidity. The PDC lines were cultured according to standard operating procedures established by the NCI PDMR. All PDCs were thawed and cultured in Matrigel-coated flasks prepared with a working solution of 1X Ham's F-12 nutrient mix, without supplementation (Invitrogen, Waltham, MA, cat. 11765054), 100 U/mL penicillin-streptomycin (Invitrogen, cat. 15140122), and 2.5% Matrigel (Corning Inc., Corning, NY, cat. 354248) for the first three passages. The 362531-283-R-J2-PDC and 782815-120-R-J1-PDC lines were cultured in 6C/Colon 1B media, which includes advanced DMEM/F-12 (Thermo Fisher Scientific, cat. 12634028), 10 mM HEPES (Thermo Fisher Scientific, cat. 15630080), 1X GlutaMAX supplement (Thermo Fisher Scientific, cat. 35050061), 0.1 mg/mL primocin (InvivoGen, San Diego, CA, cat. ant-pm-2), 10% defined fetal bovine serum, heat inactivated (HyClone Laboratories Inc., Logan, UT, cat. SH30070.03HI), 50% L-WRN conditioned media (ATCC, cat. CRL-3276), 1.25 mM N-Acetyl-L-cysteine (Sigma-Aldrich, cat. A9165), 10 mM nicotinamide (Sigma-Aldrich, cat. N0636), 1X B-27 supplement (Thermo Fisher Scientific, cat. 17504044), 1X N-2 supplement (Thermo Fisher Scientific, cat. 17502048), 50 ng/mL human EGF (Thermo Fisher Scientific, cat. PHG0311), and 10 microM Y-27632 dihydrochloride (Tocris Bioscience, cat. 1254). The K12877-001-R-J1-PDC line was cultured in 6I media, which includes all 6C/Colon 1B media plus 10 ng/mL human FGF-10 (PeproTech, cat. 100-26), 1 ng/mL human FGF-2 (PeproTech, cat. 100-18B), 1 µM prostaglandin E2 (Tocris Bioscience, cat. 2296), […] hydrocortisone (Sigma-Aldrich, cat. H4001), and […] bovine insulin (Sigma-Aldrich, cat. I6634). The K86415-001-R-J1-PDC line was cultured in 6D media, which includes all 6C/Colon 1B media components minus the L-WRN conditioned media. The 485176-168-R4-J1-PDC was cultured in PANC media, which includes all 6C/Colon 1B media plus 100 ng/mL human FGF-10 (PeproTech, cat. 100-26), 500 nM SB-431542 (Selleckchem, cat. S1067), and 10 nM gastrin (Tocris Bioscience, cat. 3006). […]

[1] = second compound 0.0316 µM, first compound 0.0316 µM
[2] = second compound 0.0316 µM, first compound 0.1 µM
[3] = second compound 0.0316 µM, first compound 0.316 µM
[4] = second compound 0.0316 µM, first compound 1 µM
[5] = second compound 0.0316 µM, first compound 3.16 µM
[6] = second compound 0.0316 µM, first compound 10 µM
[7] = second compound 0.1 µM, first compound 0.0316 µM
[8] = second compound 0.1 µM, first compound 0.1 µM
[9] = second compound 0.1 µM, first compound 0.316 µM
[10] = second compound 0.1 µM, first compound 1 µM
[11] = second compound 0.1 µM, first compound 3.16 µM
[12] = second compound 0.1 µM, first compound 10 µM
[13] = second compound 0.316 µM, first compound 0.0316 µM
[14] = second compound 0.316 µM, first compound 0.1 µM
[15] = second compound 0.316 µM, first compound 0.316 µM
[16] = second compound 0.316 µM, first compound 1 µM
[17] = second compound 0.316 µM, first compound 3.16 µM
[18] = second compound 0.316 µM, first compound 10 µM
[19] = second compound 1 µM, first compound 0.0316 µM
[20] = second compound 1 µM, first compound 0.1 µM
[21] = second compound 1 µM, first compound 0.316 µM
[22] = second compound 1 µM, first compound 1 µM
[23] = second compound 1 µM, first compound 3.16 µM
[24] = second compound 1 µM, first compound 10 µM
[25] = second compound 3.16 µM, first compound 0.0316 µM
[26] = second compound 3.16 µM, first compound 0.1 µM
[27] = second compound 3.16 µM, first compound 0.316 µM
[28] = second compound 3.16 µM, first compound 1 µM
[29] = second compound 3.16 µM, first compound 3.16 µM
[30] = second compound 3.16 µM, first compound 10 µM
[31] = second compound 10 µM, first compound 0.0316 µM
[32] = second compound 10 µM, first compound 0.1 µM
[33] = second compound 10 µM, first compound 0.316 µM
[34] = second compound 10 µM, first compound 1 µM
[35] = second compound 10 µM, first compound 3.16 µM
[36] = second compound 10 µM, first compound 10 µM
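Note: spheroids exposed to compounds for seven days before readout.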
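Throughout, for viability, T/C: 100% = DMSO vehicle control viability.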

Compound CC1(O)CCCC1n1c(=O)c(C(F)F)cc2cnc(NC3CCN(S(C)(=O)=O)CC3)nc21 (stereo unspecified) + C#Cc1c(F)ccc2cc(O)cc(-c3ncc4c(N5CC6CCC(C5)N6)nc(OCC56CCCN5CC(F)C6)nc4c3F)c12 has an IC50 (second compound 0.0316 µM) of 3.32 µM, an IC50 (second compound 0.1 µM) of 3.29 µM and an IC50 (second compound 0.316 µM) of 3.9 µM. For the same compound, the IC50 (second compound 1 µM) was 1.54 µM, the IC50 (second compound 3.16 µM) was 1.14 µM and the IC50 (second compound 10 µM) was 0.606 µM. The viability, T/C [1] was 82.3%, the viability, T/C [2] was 87.4% and the viability, T/C [3] was 76.7%. The viability, T/C [4] was 56.2%, the viability, T/C [5] was 62.2% and the viability, T/C [6] was 5.34%. For the same compound, the viability, T/C [7] was 93.8%, the viability, T/C [8] was 103% and the viability, T/C [9] was 69.9%. For the same compound, the viability, T/C [10] was 65.9%, the viability, T/C [11] was 63.7% and the viability, T/C [12] was 4.76%. The viability, T/C [13] was 91.6%, the viability, T/C [14] was 95% and the viability, T/C [15] was 75.6%. For the same compound, the viability, T/C [16] was 66.2%, the viability, T/C [17] was 69% and the viability, T/C [18] was 5.83%. It also gave a viability, T/C [19] of 96%, a viability, T/C [20] of 93.9% and a viability, T/C [21] of 59.7%. It also gave a viability, T/C [22] of 55%, a viability, T/C [23] of 50.9% and a viability, T/C [24] of 5.01%. It also gave a viability, T/C [25] of 88.4%, a viability, T/C [26] of 81.7% and a viability, T/C [27] of 55.6%. It also gave a viability, T/C [28] of 50%, a viability, T/C [29] of 46.4% and a viability, T/C [30] of 2.99%. It also gave a viability, T/C [31] of 78.8%, a viability, T/C [32] of 67.1% and a viability, T/C [33] of 53.1%. It also gave a viability, T/C [34] of 43.9%, a viability, T/C [35] of 32.4% and a viability, T/C [36] of 0.3%.
CCC(CC)c1cc(NC2CCC(N)C2)n2nccc2n1 (stereo unspecified) + C#Cc1c(F)ccc2cc(O)cc(-c3ncc4c(N5CC6CCC(C5)N6)nc(OCC56CCCN5CC(F)C6)nc4c3F)c12 showed an IC50 (second compound 0.0316 µM) of 1.46 µM, an IC50 (second compound 0.1 µM) of 1.25 µM and an IC50 (second compound 0.316 µM) of 1.36 µM. For the same compound, the IC50 (second compound 1 µM) was 1.03 µM, the IC50 (second compound 3.16 µM) was 0.665 µM and the IC50 (second compound 10 µM) was 0.426 µM. The viability, T/C [1] was 111%, the viability, T/C [2] was 163% and the viability, T/C [3] was 113%. It also gave a viability, T/C [4] of 74.5%, a viability, T/C [5] of 1.28% and a viability, T/C [6] of 1.5%. It also gave a viability, T/C [7] of 132%, a viability, T/C [8] of 138% and a viability, T/C [9] of 96.9%. For the same compound, the viability, T/C [10] was 70.2%, the viability, T/C [11] was 1.11% and the viability, T/C [12] was 1.87%. For the same compound, the viability, T/C [13] was 133%, the viability, T/C [14] was 135% and the viability, T/C [15] was 103%. It also gave a viability, T/C [16] of 73.3%, a viability, T/C [17] of 1% and a viability, T/C [18] of 1.94%. The viability, T/C [19] was 141%, the viability, T/C [20] was 123% and the viability, T/C [21] was 98.8%. It also gave a viability, T/C [22] of 58.1%, a viability, T/C [23] of 0.9% and a viability, T/C [24] of 1.4%. It also gave a viability, T/C [25] of 110%, a viability, T/C [26] of 106% and a viability, T/C [27] of 67.4%. It also gave a viability, T/C [28] of 44.9%, a viability, T/C [29] of 0.63% and a viability, T/C [30] of 1.4%. The viability, T/C [31] was 92.3%, the viability, T/C [32] was 83.5% and the viability, T/C [33] was 51.5%. The viability, T/C [34] was 37.1%, the viability, T/C [35] was 0.25% and the viability, T/C [36] was 0.31%.
CCN1CCN(Cc2ccc(Nc3ncc(F)c(-c4cc(F)c5nc(C)n(C(C)C)c5c4)n3)nc2)CC1 + C#Cc1c(F)ccc2cc(O)cc(-c3ncc4c(N5CC6CCC(C5)N6)nc(OCC56CCCN5CC(F)C6)nc4c3F)c12 gave an IC50 (second compound 0.0316 µM) greater than 1 µM, an IC50 (second compound 0.1 µM) greater than 1 µM and an IC50 (second compound 0.316 µM) greater than 1 µM. For the same compound, the IC50 (second compound 1 µM) was greater than 1 µM, the IC50 (second compound 3.16 µM) was 0.0928 µM and the IC50 (second compound 10 µM) was 0.0612 µM. The viability, T/C (second compound 0.0316 µM, first compound 0.00316 µM) was 83.6%, the viability, T/C (second compound 0.0316 µM, first compound 0.01 µM) was 130% and the viability, T/C [1] was 74.6%. For the same compound, the viability, T/C [2] was 79.2%, the viability, T/C [3] was 86.8% and the viability, T/C [4] was 89.1%. For the same compound, the viability, T/C (second compound 0.1 µM, first compound 0.00316 µM) was 109%, the viability, T/C (second compound 0.1 µM, first compound 0.01 µM) was 122% and the viability, T/C [7] was 75.6%. The viability, T/C [8] was 66.9%, the viability, T/C [9] was 76.5% and the viability, T/C [10] was 101%. For the same compound, the viability, T/C (second compound 0.316 µM, first compound 0.00316 µM) was 116%, the viability, T/C (second compound 0.316 µM, first compound 0.01 µM) was 143% and the viability, T/C [13] was 67.8%. It also gave a viability, T/C [14] of 64.1%, a viability, T/C [15] of 77.5% and a viability, T/C [16] of 82.4%. For the same compound, the viability, T/C (second compound 1 µM, first compound 0.00316 µM) was 127%, the viability, T/C (second compound 1 µM, first compound 0.01 µM) was 115% and the viability, T/C [19] was 87%. The viability, T/C [20] was 61.2%, the viability, T/C [21] was 46.8% and the viability, T/C [22] was 72.5%. The viability, T/C (second compound 3.16 µM, first compound 0.00316 µM) was 99.1%, the viability, T/C (second compound 3.16 µM, first compound 0.01 µM) was 105% and the viability, T/C [25] was 57.6%. For the same compound, the viability, T/C [26] was 56.6%, the viability, T/C [27] was 46.2% and the viability, T/C [28] was 45.6%. For the same compound, the viability, T/C (second compound 10 µM, first compound 0.00316 µM) was 87.7%, the viability, T/C (second compound 10 µM, first compound 0.01 µM) was 78.5% and the viability, T/C [31] was 56.9%. For the same compound, the viability, T/C [32] was 41.4%, the viability, T/C [33] was 44.3% and the viability, T/C [34] was 28.9%.
